# Source: patent US9247759B2, “Identification of human T2R receptors that respond to bitter compounds that elicit the bitter taste in compositions, and the use thereof in assays to identify compounds that inhibit (block) bitter taste in compositions and use thereof” (SENOMYX, INC., priority 2007, dated 2016)
# Where two headings read alike, the source gives them in different places.
# Legend:
# [1] = target: hT2R5 (Homo sapiens (Human), UniProt Q9NYW4); assay: hT2R panel inhibition, transient HEK293 G16g44, agonist Picoline 10 mM; format: cell-based; details: HEK293, compound at 25 μM
# Sequence of hT2R5 (Q9NYW4 whole entry): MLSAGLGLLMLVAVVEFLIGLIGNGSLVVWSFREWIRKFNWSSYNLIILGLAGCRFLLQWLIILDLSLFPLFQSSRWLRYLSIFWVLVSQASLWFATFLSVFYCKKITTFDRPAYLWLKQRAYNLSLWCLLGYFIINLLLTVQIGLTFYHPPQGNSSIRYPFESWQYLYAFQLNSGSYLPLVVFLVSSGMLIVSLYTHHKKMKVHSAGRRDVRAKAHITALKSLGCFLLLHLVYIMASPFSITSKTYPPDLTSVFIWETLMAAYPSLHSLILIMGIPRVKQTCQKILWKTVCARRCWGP
# Procedure, shortened: (§1)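 Panel: 22 human T2Rs, individually transient in stable G16g44 cells. Stim: EC80 agonist. Output: % reduction of activity by test cpd.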
# [2] = target: hT2R13 (Homo sapiens (Human), UniProt Q9NYV9); assay: hT2R panel inhibition, transient HEK293 G16g44, agonist Oxyphenonium 1 mM; format: cell-based; details: HEK293, compound at 25 μM
# Sequence of hT2R13 (Q9NYV9 whole entry): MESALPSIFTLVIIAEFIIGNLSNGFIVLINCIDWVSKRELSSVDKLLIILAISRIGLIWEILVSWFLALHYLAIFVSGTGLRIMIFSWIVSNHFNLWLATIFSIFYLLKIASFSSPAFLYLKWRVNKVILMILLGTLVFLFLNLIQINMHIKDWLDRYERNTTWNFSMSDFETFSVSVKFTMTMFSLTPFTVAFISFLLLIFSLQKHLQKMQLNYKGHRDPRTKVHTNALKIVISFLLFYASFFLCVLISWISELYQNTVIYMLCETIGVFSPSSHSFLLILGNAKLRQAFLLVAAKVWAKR
# Procedure, shortened: as §1
# [3] = target: hT2R4 (Homo sapiens (Human), UniProt Q9NYW5); assay: hT2R panel inhibition, transient HEK293 G16g44, agonist Chloroquine pH6.5 5 mM; format: cell-based; details: HEK293, compound at 25 μM
# Sequence of hT2R4 (Q9NYW5 whole entry): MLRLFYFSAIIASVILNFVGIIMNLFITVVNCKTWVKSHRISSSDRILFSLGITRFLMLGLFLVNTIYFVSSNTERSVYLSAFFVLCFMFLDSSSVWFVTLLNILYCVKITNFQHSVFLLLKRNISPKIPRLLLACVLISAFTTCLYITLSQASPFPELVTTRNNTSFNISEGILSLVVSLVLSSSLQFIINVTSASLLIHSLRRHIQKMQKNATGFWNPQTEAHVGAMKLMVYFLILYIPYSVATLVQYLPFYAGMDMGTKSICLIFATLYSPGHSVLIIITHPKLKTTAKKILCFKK
# Procedure, shortened: as §1
# [4] = target: hT2R9 (Homo sapiens (Human), UniProt Q9NYW1); assay: hT2R panel inhibition, transient HEK293 G16g44, agonist Ofloxacin 1 mM; format: cell-based; details: HEK293, compound at 25 μM
# Sequence of hT2R9 (Q9NYW1 whole entry): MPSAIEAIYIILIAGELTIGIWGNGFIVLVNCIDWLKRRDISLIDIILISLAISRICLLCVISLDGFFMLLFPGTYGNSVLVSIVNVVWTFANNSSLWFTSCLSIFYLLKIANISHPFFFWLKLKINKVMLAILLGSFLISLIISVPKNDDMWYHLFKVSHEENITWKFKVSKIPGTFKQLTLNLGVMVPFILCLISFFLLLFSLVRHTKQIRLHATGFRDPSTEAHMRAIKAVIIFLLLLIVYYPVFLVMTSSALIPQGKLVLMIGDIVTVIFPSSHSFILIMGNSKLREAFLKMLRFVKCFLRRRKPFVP
# Procedure, shortened: as §1
# [5] = target: T1, hT2R14 (Homo sapiens (Human), UniProt Q9NYV8); assay: hT2R14 antagonist high-throughput FLIPR assay, stable cell line with G16g44, agonist aristolochic acid; format: cell-based; details: read-out: IC50 on hT2R14 bitter receptor
# T1 sequence (Q9NYV8 whole entry): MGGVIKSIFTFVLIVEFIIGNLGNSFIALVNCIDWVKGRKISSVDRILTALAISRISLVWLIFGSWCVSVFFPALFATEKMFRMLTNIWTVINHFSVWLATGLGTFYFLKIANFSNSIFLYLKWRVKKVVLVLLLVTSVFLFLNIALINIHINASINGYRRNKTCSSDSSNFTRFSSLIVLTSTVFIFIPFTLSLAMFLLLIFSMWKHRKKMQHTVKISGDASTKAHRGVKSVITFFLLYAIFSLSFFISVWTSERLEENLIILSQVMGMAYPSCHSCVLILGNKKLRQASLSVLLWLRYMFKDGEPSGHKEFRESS
# Procedure, shortened: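 Compounds were co-applied with 3 μM aristolochic acid, a dose set to reach 70-80% of maximal hT2R14 activation. Read-out was FLIPR fluorescence in a stable HEK293 line co-expressing hT2R14 and G16g44.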
# [6] = target: hT2R75 (Homo sapiens (Human), UniProt P59540); assay: hT2R panel inhibition, transient HEK293 G16g44, agonist Strychnine 1 μM; format: cell-based; details: HEK293, read-out: screening result against bitter receptor 75, compound at 25 μM; receptor activated to EC80 with the corresponding agonist
# Sequence of hT2R75 (P59540 whole entry): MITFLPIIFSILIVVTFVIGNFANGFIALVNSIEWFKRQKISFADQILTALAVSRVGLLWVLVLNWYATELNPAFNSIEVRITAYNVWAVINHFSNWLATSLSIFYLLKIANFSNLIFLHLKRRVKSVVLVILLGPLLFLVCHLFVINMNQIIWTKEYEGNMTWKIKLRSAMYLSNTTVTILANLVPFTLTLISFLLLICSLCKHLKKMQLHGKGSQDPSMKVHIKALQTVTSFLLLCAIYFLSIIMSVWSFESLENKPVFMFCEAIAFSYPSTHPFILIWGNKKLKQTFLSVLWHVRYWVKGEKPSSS
# [7] = target: hT2R8 (Homo sapiens (Human), UniProt Q9NYW2); assay: hT2R panel inhibition, transient HEK293 G16g44, agonist Andrographolide 0.5 mM; format: cell-based; details: HEK293, compound at 25 μM
# Sequence of hT2R8 (Q9NYW2 whole entry): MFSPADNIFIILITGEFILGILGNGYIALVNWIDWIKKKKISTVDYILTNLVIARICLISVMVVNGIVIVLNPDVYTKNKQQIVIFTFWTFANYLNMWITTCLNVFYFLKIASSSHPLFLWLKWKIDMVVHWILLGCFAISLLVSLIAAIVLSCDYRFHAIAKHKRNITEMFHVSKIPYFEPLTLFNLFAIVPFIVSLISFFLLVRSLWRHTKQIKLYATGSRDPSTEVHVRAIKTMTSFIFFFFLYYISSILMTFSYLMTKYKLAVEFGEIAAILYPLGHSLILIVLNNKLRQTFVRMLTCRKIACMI
# Description: Specifically, in order to evaluate the inhibitory selectivity of the Compound C compound, this compound was tested against 22 human T2Rs which were deorphaned by Senomyx. These receptors and the bitter ligands that activate these human T2Rs are reported in earlier patent applications which are incorporated by reference herein. These 22 human T2Rs are hT2R1, 3, 4, 5, 7, 8, 9, 10, 13, 14, 16, 44, 51, 54, 55, 61, 63, 64, 65, 67, 71 and 75. The amino acid and nucleic acid sequences of all of these T2Rs may be found in these earlier patent applications. These human T2Rs were each individually transiently transfected into HEK293 cells that stably express the promiscuous G protein G16g44 and functional assays were effected using these receptors as disclosed in these same patent applications. […] The ligands were used at EC80 concentration levels. The list of bitter ligands utilized and the tested ligand concentrations are contained in Table 5 of this example.
# [8] = target: hT2R16 (Homo sapiens (Human), UniProt Q9NYV7); assay: hT2R panel inhibition, transient HEK293 G16g44, agonist Salicin 1 mM; format: cell-based; details: HEK293, compound at 25 μM
# Sequence of hT2R16 (Q9NYV7 whole entry): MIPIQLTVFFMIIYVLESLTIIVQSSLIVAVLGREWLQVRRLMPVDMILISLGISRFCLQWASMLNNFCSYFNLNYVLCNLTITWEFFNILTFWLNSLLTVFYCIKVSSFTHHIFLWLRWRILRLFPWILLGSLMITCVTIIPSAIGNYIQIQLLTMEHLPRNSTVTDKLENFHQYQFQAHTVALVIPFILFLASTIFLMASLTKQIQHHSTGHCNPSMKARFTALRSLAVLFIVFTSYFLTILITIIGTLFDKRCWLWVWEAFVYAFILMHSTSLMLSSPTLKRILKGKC
# Procedure, shortened: as §1
# [9] = target: hT2R51 (Homo sapiens (Human), UniProt P59533); assay: hT2R panel inhibition, transient HEK293 G16g44, agonist Prop 2.5 μM; format: cell-based; details: HEK293, compound at 25 μM
# Sequence of hT2R51 (P59533 whole entry): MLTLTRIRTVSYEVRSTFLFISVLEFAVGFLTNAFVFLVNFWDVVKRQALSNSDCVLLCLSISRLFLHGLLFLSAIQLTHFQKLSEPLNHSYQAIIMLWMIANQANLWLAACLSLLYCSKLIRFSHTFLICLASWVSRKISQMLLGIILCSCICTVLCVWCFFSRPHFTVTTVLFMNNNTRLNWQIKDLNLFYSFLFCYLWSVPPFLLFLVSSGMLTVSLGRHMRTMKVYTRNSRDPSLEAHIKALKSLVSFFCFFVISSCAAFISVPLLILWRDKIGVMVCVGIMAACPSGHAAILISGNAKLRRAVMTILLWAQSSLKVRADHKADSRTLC
# Procedure, shortened: as §1
# [10] = target: hT2R7 (Homo sapiens (Human), UniProt Q9NYW3); assay: hT2R panel inhibition, transient HEK293 G16g44, agonist Chloroquine pH6.5 10 mM; format: cell-based; details: HEK293, compound at 25 μM
# Sequence of hT2R7 (Q9NYW3 whole entry): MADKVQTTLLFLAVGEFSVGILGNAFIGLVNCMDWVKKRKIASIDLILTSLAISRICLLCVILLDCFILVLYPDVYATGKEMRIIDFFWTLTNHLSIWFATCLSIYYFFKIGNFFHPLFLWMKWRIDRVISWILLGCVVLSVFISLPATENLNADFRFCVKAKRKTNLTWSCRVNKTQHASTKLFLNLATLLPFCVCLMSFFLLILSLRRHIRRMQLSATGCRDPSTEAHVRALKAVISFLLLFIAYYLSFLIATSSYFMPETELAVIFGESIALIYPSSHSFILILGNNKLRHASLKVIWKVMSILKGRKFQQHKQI
# Procedure, shortened: as §1
# [11] = target: T1, hT2R14; assay: hT2R panel inhibition, transient HEK293 G16g44, agonist Aristolochic Acid 2 μM; format: cell-based; details: HEK293, compound at 25 μM
# Procedure, shortened: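 Agonist challenge was at EC80, with 0.5 mM andrographolide on hT2R8 and 2 μM aristolochic acid on hT2R14. Inhibition was measured in functional assays in HEK293 cells that stably carry the promiscuous G protein G16g44 and were transiently transfected with the individual receptor.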
# [12] = target: hT2R61 (Homo sapiens (Human), UniProt P59537); assay: hT2R panel inhibition, transient HEK293 G16g44, agonist Aristolochic Acid 25 nM; format: cell-based; details: HEK293, compound at 25 μM
# Sequence of hT2R61 (P59537 whole entry): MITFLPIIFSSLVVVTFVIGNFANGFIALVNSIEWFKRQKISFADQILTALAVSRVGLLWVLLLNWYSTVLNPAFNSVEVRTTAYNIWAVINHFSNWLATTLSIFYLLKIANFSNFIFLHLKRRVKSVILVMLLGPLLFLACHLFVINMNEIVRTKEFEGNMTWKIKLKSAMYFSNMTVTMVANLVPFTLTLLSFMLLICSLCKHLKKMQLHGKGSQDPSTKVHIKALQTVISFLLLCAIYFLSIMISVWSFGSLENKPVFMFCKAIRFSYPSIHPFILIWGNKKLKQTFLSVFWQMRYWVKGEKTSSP
# Procedure, shortened: as §1
# [13] = system: hT2R55; assay: hT2R panel inhibition, transient HEK293 G16g44, agonist Cinchonine 150 μM; format: cell-based, human; details: compound at 25 μM
# Procedure, shortened: as §1
# [14] = target: hT2R3 (Homo sapiens (Human), UniProt Q9NYW6); assay: hT2R panel inhibition, transient HEK293 G16g44, agonist Chloroquine pH6.5 50 μM; format: cell-based; details: HEK293, compound at 25 μM
# Sequence of hT2R3 (Q9NYW6 whole entry): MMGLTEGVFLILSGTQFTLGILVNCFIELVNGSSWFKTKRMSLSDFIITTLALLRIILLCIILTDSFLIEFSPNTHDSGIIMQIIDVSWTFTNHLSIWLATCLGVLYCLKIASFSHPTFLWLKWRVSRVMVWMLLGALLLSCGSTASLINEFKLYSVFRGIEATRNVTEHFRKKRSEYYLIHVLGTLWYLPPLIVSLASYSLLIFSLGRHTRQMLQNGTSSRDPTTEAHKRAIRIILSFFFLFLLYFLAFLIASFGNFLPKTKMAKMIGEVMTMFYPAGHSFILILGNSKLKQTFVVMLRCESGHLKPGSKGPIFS
# Procedure, shortened: as §1
# [15] = system: hT2R44; assay: hT2R panel inhibition, transient HEK293 G16g44, agonist Denatonium 0.5 μM; format: cell-based, human; details: compound at 25 μM; for screening result against bitter receptor 44: receptor activated to EC80 with the corresponding agonist
# Procedure, shortened: as §1
# [16] = system: hT2R65; assay: hT2R panel inhibition, transient HEK293 G16g44, agonist Oleuropein 1 mM; format: cell-based, human; details: compound at 25 μM
# Procedure, shortened: as §1
# [17] = target: hT2R64 (Homo sapiens (Human), UniProt P59538); assay: hT2R panel inhibition, transient HEK293 G16g44, agonist Aristolochic Acid 1 μM; format: cell-based; details: HEK293, compound at 25 μM
# Sequence of hT2R64 (P59538 whole entry): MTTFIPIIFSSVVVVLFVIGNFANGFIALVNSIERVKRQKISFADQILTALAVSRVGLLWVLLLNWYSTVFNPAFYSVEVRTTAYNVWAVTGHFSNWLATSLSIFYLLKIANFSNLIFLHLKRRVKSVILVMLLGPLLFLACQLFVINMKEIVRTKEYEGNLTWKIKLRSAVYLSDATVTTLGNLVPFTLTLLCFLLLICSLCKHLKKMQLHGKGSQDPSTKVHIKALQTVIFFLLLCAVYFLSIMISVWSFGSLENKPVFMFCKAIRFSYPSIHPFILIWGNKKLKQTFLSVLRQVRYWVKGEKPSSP
# Procedure, shortened: as §1
# [18] = system: hT2R67; assay: hT2R panel inhibition, transient HEK293 G16g44, agonist Andrographolide 5 μM; format: cell-based, human; details: compound at 25 μM
# Procedure, shortened: as §1
# [19] = target: hT2R71 (Homo sapiens (Human), UniProt P59536); assay: hT2R panel inhibition, transient HEK293 G16g44, agonist Picric Acid 10 μM; format: cell-based; details: HEK293, compound at 25 μM
# Sequence of hT2R71 (P59536 whole entry): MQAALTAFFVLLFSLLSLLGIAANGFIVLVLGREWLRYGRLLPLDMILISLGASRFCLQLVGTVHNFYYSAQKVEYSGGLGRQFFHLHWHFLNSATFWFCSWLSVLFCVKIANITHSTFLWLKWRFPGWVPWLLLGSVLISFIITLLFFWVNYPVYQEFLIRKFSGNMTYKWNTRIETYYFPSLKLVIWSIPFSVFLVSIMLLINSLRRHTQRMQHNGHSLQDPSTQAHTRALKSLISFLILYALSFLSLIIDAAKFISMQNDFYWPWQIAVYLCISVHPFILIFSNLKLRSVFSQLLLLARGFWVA
# Procedure, shortened: as §1
# [20] = system: hT2R63; assay: hT2R panel inhibition, transient HEK293 G16g44, agonist Caffeine 1 mM or Andrographolide 100 μM; format: cell-based, human; details: compound at 25 μM; for screening result against bitter receptor 63: receptor activated to EC80 with the corresponding agonist
# Procedure, shortened: as §1
# [21] = system: hT2R54; assay: hT2R panel inhibition, transient HEK293 G16g44, agonist Ranitidine 5 mM; format: cell-based, human; details: compound at 25 μM; for screening result against bitter receptor 54: receptor activated to EC80 with the corresponding agonist
# Procedure, shortened: as §1
# [22] = target: hT2R10 (Homo sapiens (Human), UniProt Q9NYW0); assay: hT2R panel inhibition, transient HEK293 G16g44, agonist Strychnine 50 μM; format: cell-based
# Sequence of hT2R10 (Q9NYW0 whole entry): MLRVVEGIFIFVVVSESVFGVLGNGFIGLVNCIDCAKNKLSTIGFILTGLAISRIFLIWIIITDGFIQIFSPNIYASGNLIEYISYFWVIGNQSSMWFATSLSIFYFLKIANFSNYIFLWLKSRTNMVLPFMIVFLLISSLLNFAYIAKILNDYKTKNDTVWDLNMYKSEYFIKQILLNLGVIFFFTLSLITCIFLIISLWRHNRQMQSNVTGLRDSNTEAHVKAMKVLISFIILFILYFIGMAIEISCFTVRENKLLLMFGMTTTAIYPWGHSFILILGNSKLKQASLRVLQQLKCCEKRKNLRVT
# [23] = receptor activated to EC80 with the corresponding agonist, read-out: screening result against bitter receptor 5
# [24] = receptor activated to EC80 with the corresponding agonist, read-out: screening result against bitter receptor 13
# [25] = receptor activated to EC80 with the corresponding agonist, read-out: screening result against bitter receptor 9
# [26] = receptor activated to EC80 with the corresponding agonist, read-out: screening result against bitter receptor 8
# [27] = receptor activated to EC80 with the corresponding agonist, read-out: screening result against bitter receptor 16
# [28] = receptor activated to EC80 with the corresponding agonist, read-out: screening result against bitter receptor 51
# [29] = receptor activated to EC80 with the corresponding agonist, read-out: screening result against bitter receptor 7
# [30] = receptor activated to EC80 with the corresponding agonist, read-out: screening result against bitter receptor 14
# [31] = receptor activated to EC80 with the corresponding agonist, read-out: screening result against bitter receptor 61
# [32] = receptor activated to EC80 with the corresponding agonist
# [33] = receptor activated to EC80 with the corresponding agonist, read-out: screening result against bitter receptor 3
# [34] = receptor activated to EC80 with the corresponding agonist, read-out: screening result against bitter receptor 64
# [35] = receptor activated to EC80 with agonist
Structure (SMILES),"inhibition at 25 µM [1, 23] [%]","inhibition at 25 µM [2, 24] [%]","inhibition at 25 µM [4, 25] [%]",IC50 [5] [µM],inhibition at 25 µM [6] [%],"inhibition at 25 µM [7, 26] [%]","inhibition at 25 µM [8, 27] [%]","inhibition at 25 µM [9, 28] [%]","inhibition at 25 µM [10, 29] [%]","inhibition at 25 µM [11, 30] [%]","inhibition at 25 µM [12, 31] [%]","inhibition at 25 µM [14, 33] [%]",screening result against bitter receptor 44 [15],"inhibition at 25 µM [17, 34] [%]",screening result against bitter receptor 63 [20],screening result against bitter receptor 54 [21],also measured
"COc1ccc(CN(Cc2ccccc2)S(=O)(=O)c2ccc(C(=O)O)cc2)cc1 [Example 5-1, 4-(N-benzyl-N-(4-methoxybenzyl)sulfamoyl)benzoic acid]",20 to 40,20 to 40,20 to 40,0.22,20 to 40,20 to 40,40 to 60,60 to 80,40 to 60,> 80,> 80,–,–,–,–,–,"inhibition at 25 µM ([3]; receptor activated to EC80 with the corresponding agonist, class symbols, read-out: screening result against bitter receptor 4): 20 to 40%; melting point: 161 to 163 °C"
"COc1ccc(CN(Cc2cccc(Cl)c2)S(=O)(=O)c2ccc(C(=O)O)cc2)cc1 [Example 5-14, 4-(N-(3-chlorobenzyl)-N-(4-methoxybenzyl)sulfamoyl)benzoic acid]",60 to 80,20 to 40,40 to 60,1.88,40 to 60,20 to 40,60 to 80,60 to 80,60 to 80,> 80,> 80,> 80,+++ (60% to 80% inhibition = +++),> 80,++++ (80% or greater inhibition = ++++),++++ (80% or greater inhibition = ++++),"screening result against bitter receptor 55 [13, 32]: ++++ (80% or greater inhibition = ++++); screening result against bitter receptor 65 [16, 32]: ++++ (80% or greater inhibition = ++++); screening result against bitter receptor 67 [18, 32]: ++ (40% to 60% inhibition = ++); inhibition at 25 µM ([19]; receptor activated to EC80 with the corresponding agonist, read-out: screening result against bitter receptor 71): > 80%; inhibition at 25 µM ([22]; HEK293, read-out: screening result against bitter receptor 10, compound at 25 μM, receptor activated to EC80 with the corresponding agonist): > 80%"
"COc1ccc(CN(Cc2ccccc2C)S(=O)(=O)c2ccc(C(=O)O)cc2)cc1 [Example 5-64, 4-(N-(4-methoxybenzyl)-N-(2-methylbenzyl)sulfamoyl)benzoic acid]",20 to 40,–,20 to 40,–,–,20 to 40,–,–,–,–,–,20 to 40,+ (20% to 40% inhibition = +),20 to 40,+ (20% to 40% inhibition = +),+ (20% to 40% inhibition = +),–
"COc1ccc(CN(Cc2ccc(C)cc2)S(=O)(=O)c2ccc(C(=O)O)cc2)cc1 [Example 5-66, 4-(N-(4-methoxybenzyl)-N-(4-methylbenzyl)sulfamoyl)benzoic acid]",–,–,20 to 40,–,–,20 to 40,–,–,–,–,–,20 to 40,+ (20% to 40% inhibition = +),–,–,–,–
"CC(C)Oc1ccc(CN(Cc2ccccc2)S(=O)(=O)c2ccc(C(=O)O)cc2)cc1 [Example 5-110, 4-(N-benzyl-N-(4-isopropoxybenzyl)sulfamoyl)benzoic acid]",–,–,–,–,–,–,–,–,–,–,–,–,–,–,–,–,"inhibition of bitter receptor 55 [13, 35]: ++++ (80% or greater inhibition = ++++); inhibition at 25 µM ([14]; receptor activated to EC80 with agonist, read-out: inhibition of bitter receptor 3): 40 to 60%; inhibition of bitter receptor 44 [15, 35]: +++ (60% to 80% inhibition = +++); inhibition at 25 µM ([1]; receptor activated to EC80 with agonist, read-out: inhibition of bitter receptor 5): 20 to 40%; inhibition of bitter receptor 65 [16, 35]: +++ (60% to 80% inhibition = +++); inhibition at 25 µM ([2]; receptor activated to EC80 with agonist, read-out: inhibition of bitter receptor 13): 20 to 40%; inhibition at 25 µM ([17]; receptor activated to EC80 with agonist, read-out: inhibition of bitter receptor 64): 60 to 80%; inhibition at 25 µM ([3]; receptor activated to EC80 with agonist, read-out: inhibition of bitter receptor 4): 60 to 80%; inhibition at 25 µM ([4]; receptor activated to EC80 with agonist, read-out: inhibition of bitter receptor 9): 20 to 40%; inhibition of bitter receptor 67 [18, 35]: + (20% to 40% inhibition = +); inhibition at 25 µM ([7]; receptor activated to EC80 with agonist, read-out: inhibition of bitter receptor 8): 20 to 40%; inhibition at 25 µM ([19]; receptor activated to EC80 with agonist, read-out: inhibition of bitter receptor 71): 60 to 80%; inhibition at 25 µM ([8]; receptor activated to EC80 with agonist, read-out: inhibition of bitter receptor 16): 20 to 40%; inhibition at 25 µM ([9]; receptor activated to EC80 with agonist, read-out: inhibition of bitter receptor 51): 40 to 60%; inhibition at 25 µM ([10]; receptor activated to EC80 with agonist, read-out: inhibition of bitter receptor 7): 40 to 60%; inhibition at 25 µM ([11]; receptor activated to EC80 with agonist, read-out: inhibition of bitter receptor 14): > 80%; inhibition of bitter receptor 63 [20, 35]: +++ (60% to 80% inhibition = +++); inhibition at 25 µM ([12]; receptor activated to EC80 with agonist, read-out: inhibition of bitter receptor 61): > 80%; inhibition of bitter receptor 54 [21, 35]: + (20% to 40% inhibition = +); inhibition at 25 µM ([22]; HEK293, read-out: inhibition of bitter receptor 10, compound at 25 μM, receptor activated to EC80 with agonist): 40 to 60%"
